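Step 1: Grow cells in 96-well plates. Step 2: Expose to compound for 48 hours at 5 concentrations. Step 3: Interpolate endpoints linearly; if unreached, use highest concentration. At the GI50, growth is halved.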 Active and inactive are the calls of the source. Cut-off read from the data, not from the text of the source: active = GI50 up to about 1.1 µM and inactive = higher.
Assays:
Test in all cases: DTP human tumour cell line panel, 48 h
ACHN = tested on: ACHN
CCRF-CEM = tested on: CCRF-CEM
COLO 205 = tested on: COLO 205
HCT-116 = tested on: HCT-116
HL-60 = tested on: HL-60
HT-29 = tested on: HT-29
IGROV-1 = tested on: IGROV-1
LOX IMVI = tested on: LOX IMVI
Malme-3M = tested on: Malme-3M
NCI-H522 = tested on: NCI-H522
RXF 393 = tested on: RXF 393
SF-268 = tested on: SF-268
SK-MEL-2 = tested on: SK-MEL-2
SR = tested on: SR
SW-620 = tested on: SW-620
U-251 = tested on: U-251
SK-MEL-28 = tested on: SK-MEL-28
SK-MEL-5 = tested on: SK-MEL-5

Measured: GI50

O=C(Nc1ccc([N+](=O)[O-])cc1[N+](=O)[O-])C(=O)C(C(=O)c1ccc(Cl)c(Cl)c1)C1OC(=O)c2ccccc21 (centres undefined)
inactive: ACHN 23.3 µM | CCRF-CEM 22.6 µM | COLO 205 21.6 µM | HCT-116 19.4 µM | HL-60 28.9 µM | HT-29 25.8 µM | IGROV-1 22.2 µM | LOX IMVI 17.5 µM | Malme-3M 26.3 µM | NCI-H522 17.1 µM | RXF 393 11.8 µM | SF-268 25.3 µM | SK-MEL-2 > 10 µM | SR 26.5 µM | SW-620 20.6 µM | U-251 30.3 µM

NC(=O)c1c(-c2ccccc2)c(-c2ccccc2)cc2c(=O)c3ccccc3[nH]c12
inactive: ACHN 16.4 µM | CCRF-CEM 31.4 µM | COLO 205 29 µM | HCT-116 14.4 µM | HT-29 18.9 µM | IGROV-1 22.1 µM | LOX IMVI 45.5 µM | Malme-3M 17.9 µM | NCI-H522 5.85 µM | SF-268 39 µM | SK-MEL-28 17.8 µM | SK-MEL-2 19.9 µM | SK-MEL-5 13.7 µM | SW-620 37.1 µM | U-251 31.7 µM

Nc1c(-c2nc3ccccc3[nH]2)sc(=S)n1-c1ccccc1
inactive: ACHN 18.4 µM | CCRF-CEM 26.1 µM | COLO 205 > 100 µM | HCT-116 > 100 µM | HL-60 > 100 µM | HT-29 92.9 µM | IGROV-1 > 100 µM | Malme-3M 70.8 µM | NCI-H522 77.3 µM | RXF 393 46.9 µM | SF-268 > 100 µM | SK-MEL-28 > 100 µM | SK-MEL-2 > 100 µM | SK-MEL-5 > 100 µM | SR 30.3 µM | SW-620 > 100 µM | U-251 76.7 µM

O=C(O)[C@H](NS(=O)(=O)c1ccc(F)cc1)c1ccccc1
inactive: ACHN > 100 µM | CCRF-CEM > 100 µM | COLO 205 > 100 µM | HCT-116 > 100 µM | HT-29 > 100 µM | IGROV-1 > 100 µM | LOX IMVI > 100 µM | Malme-3M > 100 µM | NCI-H522 > 100 µM | RXF 393 > 100 µM | SF-268 > 100 µM | SK-MEL-28 > 100 µM | SK-MEL-2 > 100 µM | SK-MEL-5 > 100 µM | SW-620 > 100 µM | U-251 > 100 µM

Cc1nc2ccccc2nc1CC(=O)C(=O)Nc1ccc(Cl)cc1Cl
inactive: ACHN > 100 µM | CCRF-CEM > 100 µM | COLO 205 > 100 µM | HCT-116 > 100 µM | HL-60 > 100 µM | IGROV-1 > 100 µM | LOX IMVI > 100 µM | Malme-3M > 100 µM | NCI-H522 57.4 µM | RXF 393 > 100 µM | SF-268 > 100 µM | SK-MEL-28 > 100 µM | SK-MEL-2 > 100 µM | SK-MEL-5 > 100 µM | SW-620 > 100 µM | U-251 > 100 µM

C/C=N\N1C(=O)c2ccccc2C1=O
inactive: ACHN > 100 µM | CCRF-CEM > 100 µM | HCT-116 > 100 µM | HL-60 > 100 µM | HT-29 > 100 µM | IGROV-1 > 100 µM | LOX IMVI > 100 µM | Malme-3M > 100 µM | RXF 393 > 100 µM | SF-268 > 100 µM | SK-MEL-28 > 100 µM | SK-MEL-2 > 100 µM | SK-MEL-5 > 100 µM | SR > 100 µM | SW-620 > 100 µM

COc1ccc(NC(=O)/C(=C/c2ccccc2)C(C)=O)cc1
inactive: ACHN 20.7 µM | CCRF-CEM 6.12 µM | COLO 205 19.1 µM | HL-60 3.39 µM | HT-29 13.3 µM | IGROV-1 17.5 µM | LOX IMVI 10.7 µM | Malme-3M 16.5 µM | NCI-H522 1.73 µM | SF-268 15.2 µM | SK-MEL-28 12.9 µM | SK-MEL-2 14.6 µM | SK-MEL-5 13.9 µM | SW-620 16.2 µM | U-251 15.2 µM

C=C[Si](C)(C)COC(=O)/C(C#N)=C/C=C/c1ccccc1
inactive: ACHN > 100 µM | CCRF-CEM 32.3 µM | COLO 205 > 100 µM | HCT-116 > 100 µM | HL-60 39.2 µM | HT-29 > 100 µM | IGROV-1 > 100 µM | Malme-3M > 100 µM | NCI-H522 46.3 µM | RXF 393 40.6 µM | SF-268 > 100 µM | SK-MEL-28 > 100 µM | SK-MEL-2 > 100 µM | SK-MEL-5 > 100 µM | SR 25.2 µM | SW-620 76 µM | U-251 > 100 µM

CC12CC(=O)NN=C1c1ccccc1C2 (centres undefined)
inactive: ACHN > 100 µM | CCRF-CEM > 100 µM | COLO 205 > 100 µM | HCT-116 > 100 µM | HL-60 > 100 µM | HT-29 > 100 µM | IGROV-1 > 100 µM | LOX IMVI > 100 µM | Malme-3M > 100 µM | NCI-H522 > 100 µM | RXF 393 > 100 µM | SF-268 > 100 µM | SK-MEL-28 > 100 µM | SK-MEL-2 > 100 µM | SK-MEL-5 > 100 µM | SW-620 > 100 µM | U-251 > 100 µM

O=[N+]([O-])c1ccc(C2=Nn3c(nnc3-c3ccccc3)SC2)o1
inactive: ACHN 19.4 µM | CCRF-CEM 3.6 µM | COLO 205 21.4 µM | HCT-116 17.6 µM | HL-60 15.3 µM | HT-29 23.7 µM | IGROV-1 21.8 µM | Malme-3M 24.1 µM | RXF 393 19.3 µM | SF-268 20.2 µM | SK-MEL-28 29.2 µM | SK-MEL-2 20.9 µM | SK-MEL-5 17.7 µM | SW-620 18 µM | U-251 17.4 µM

N=C(N)NS(=O)(=O)c1ccc(NC(=O)c2cccc3cc4ccccc4nc23)cc1
inactive: ACHN 93.8 µM | CCRF-CEM 6.56 µM | COLO 205 > 100 µM | HCT-116 19.3 µM | HT-29 > 100 µM | IGROV-1 > 100 µM | LOX IMVI 51.5 µM | Malme-3M > 100 µM | NCI-H522 13.5 µM | RXF 393 > 100 µM | SF-268 88.5 µM | SK-MEL-28 > 100 µM | SK-MEL-2 > 100 µM | SK-MEL-5 > 100 µM | SW-620 66.8 µM | U-251 87.7 µM

CC1OC(OC2C(CO)OC(O[C@H]3CC[C@@]4(C)C(=CC[C@H]5[C@@H]6C[C@@H]7O[C@]8(CC[C@@H](C)CN8)[C@@H](C)[C@@H]7[C@@]6(C)CC[C@@H]54)C3)C(O)C2O)C(O)C(O)C1O (some centres undefined)
inactive: ACHN > 100 µM | CCRF-CEM > 100 µM | COLO 205 > 100 µM | HCT-116 > 100 µM | HL-60 > 100 µM | HT-29 > 100 µM | IGROV-1 > 100 µM | LOX IMVI > 100 µM | Malme-3M > 100 µM | NCI-H522 70.6 µM | RXF 393 > 100 µM | SF-268 > 100 µM | SK-MEL-28 31.8 µM | SK-MEL-2 > 100 µM | SK-MEL-5 > 100 µM | SW-620 > 100 µM | U-251 > 100 µM

Cc1cc2nc3c(=O)[nH]c(=O)nc-3n(CC(O)C(O)C(O)CO)c2cc1N (centres undefined)
inactive: ACHN > 100 µM | CCRF-CEM > 100 µM | COLO 205 > 100 µM | HCT-116 > 100 µM | HL-60 > 100 µM | HT-29 > 100 µM | IGROV-1 > 100 µM | LOX IMVI > 100 µM | SK-MEL-28 > 100 µM | SK-MEL-2 > 100 µM | SK-MEL-5 > 100 µM | SW-620 > 100 µM

NC(=S)N/N=C(/CCN1CCCC1)CC(C1=C(O)C2=CCCCC2OC1=O)c1ccccc1 (centres undefined)
inactive: ACHN > 100 µM | CCRF-CEM 80 µM | COLO 205 54.1 µM | HCT-116 > 100 µM | HL-60 > 100 µM | HT-29 > 100 µM | IGROV-1 > 100 µM | LOX IMVI > 100 µM | Malme-3M > 100 µM | NCI-H522 > 100 µM | RXF 393 > 100 µM | SF-268 > 100 µM | SK-MEL-2 > 100 µM | SK-MEL-5 > 100 µM | SR 70 µM | SW-620 37.8 µM | U-251 > 100 µM

COc1ccc([N+]2=NC(c3ccc([N+](=O)[O-])cc3)=NN(c3ccccc3)C2)cc1
inactive: ACHN 42.5 µM | CCRF-CEM 24.9 µM | COLO 205 68.2 µM | HCT-116 46 µM | HL-60 18.6 µM | HT-29 34 µM | IGROV-1 39 µM | LOX IMVI 30.1 µM | Malme-3M > 100 µM | NCI-H522 2.69 µM | RXF 393 > 100 µM | SF-268 97.7 µM | SK-MEL-28 70.8 µM | SK-MEL-5 21 µM | SR 32.9 µM | SW-620 68.4 µM | U-251 37.3 µM

CC(C)=CC(=O)CC(=O)C(=O)Nc1ccc(C)c(C)c1
inactive: ACHN > 100 µM | CCRF-CEM > 100 µM | HCT-116 > 100 µM | HL-60 > 100 µM | HT-29 > 100 µM | IGROV-1 > 100 µM | LOX IMVI > 100 µM | Malme-3M > 100 µM | NCI-H522 > 100 µM | SF-268 > 100 µM | SK-MEL-28 > 100 µM | SK-MEL-2 > 100 µM | SR > 100 µM | SW-620 > 100 µM | U-251 > 100 µM

Cc1cccc(-n2c(N)c(-c3nc4ccccc4[nH]3)sc2=S)c1
inactive: ACHN 23.9 µM | CCRF-CEM 32.2 µM | COLO 205 23.8 µM | HL-60 26.5 µM | HT-29 23.1 µM | IGROV-1 30.8 µM | LOX IMVI 26.8 µM | Malme-3M 28.8 µM | NCI-H522 25.6 µM | RXF 393 33.3 µM | SF-268 76.6 µM | SK-MEL-28 37 µM | SK-MEL-2 23.7 µM | SK-MEL-5 20.9 µM | SW-620 31.4 µM | U-251 21.8 µM

Source: ChEMBL document CHEMBL1201862, “PubChem BioAssay data set” (2004)
